# Several values for one entry are separate records, joined by “and”; a condition that tells them apart may be missing. Identical values can stand only once.
# Key:
# [1] = molecular target: serotonergic 5-HT1A receptor (5-HT1AR); parameters: method as in PMID 27353547; conditions: ref [8]; cited from earlier work
# mice = experiment: Forced swim test (FST) in mice; type: in vivo, Swiss albino mice; conditions: for reduction of immobility time in FST: acute, 60 min before test
# Text: The investigated compounds AZ-853 (8-(4-(4-(2-fluorophenyl)piperazin-1-yl)butyl)-1,3-dimethyl-1H-imidazo[2,1-f]purine-2,4(3H,8H)-dione and AZ-861 (1,3-dimethyl-8-(4-(4-(3-(trifluoromethyl)phenyl)piperazin-1-yl)butyl)-1H-imidazo[2,1-f]purine-2,4(3H,8H)-dione) were synthesised in the Department of Medicinal Chemistry, Faculty of Pharmacy, Jagiellonian University, and their synthesis was described earlier. AZ-853 and AZ-861 were suspended in 1% aqueous solution of Tween 80, and WAY-100635 (Sigma, Germany) was dissolved in 0.9% saline. In acute experiments, the selected compounds AZ-853 (0.156–2.5 mg/kg) and AZ-861 (0.625–2.5 mg/kg) were injected i.p. once 60 min before tests, whereas WAY-100635 (0.3 mg/kg) was administered subcutaneously (s.c.) 45 min before the test. […] In chronic experiments, AZ-853 and AZ-861 were administered i.p. once a day (between 9:00 AM and 10:00 AM) for 16 consecutive days at the minimum active doses selected from FST experiment, i.e. 0.625 and 1.25 mg/kg, respectively. All compounds were administered to mice at a volume of 10 ml/kg and to rats at a volume of 2 ml/kg. The control groups received 1% aqueous solution of Tween 80.
# The experiment was carried out according to the method of Porsolt et al.. Swiss albino mice were individually placed in a glass cylinder (25 cm high; 10 cm in diameter) containing 10 cm of water maintained at 23–25°C, and were left there for 6 min. The total duration of immobility was recorded during the last 4 min of a 6-min. A mouse was regarded as immobile when it remained floating on the water, making only small movements to keep its head above it.
# (§1) The Swiss albino mice were used in the experiment. AZ-853 and AZ-861 were injected once daily for 16 consecutive days. On the 1st and 15th day the administration of the compounds, 18-h spontaneous animal activity was registered (see below). FST, as described earlier, was performed on the 14th day just before the next treatment. To ensure that the effects observed in FST are not the result of increased motility of animals, on the 13th day, just before the next administration, the locomotor activity was measured as described earlier, from 2 to 6 min after test start, i.e. in the period identical to the duration of FST. Blood and organ collection was performed on the 17th day at 24 h after the last dose and fasting.
# [2] = tested on: adrenergic α1 receptors (α1R); experiment: Pressor response to methoxamine in anesthetized normotensive rats (adrenolytic activity); type: in vivo, Wistar rats; conditions: 10 mg/kg, 30 min prior to methoxamine 150 μg/kg
# Description: In a separate series of experiments on anesthetized normotensive rats, the effect of studied compounds on the pressor response to methoxamine (Sigma Aldrich) (150 μg/kg) was investigated. Pressor responses to methoxamine injected intravenously were measured before and 30 min after the administration of the tested compound. The amplitudes of the pressure values were measured in 4 independent experiments.
# normotensive rats = experiment: Blood pressure measurement in normotensive anesthetized rats; type: in vivo, Wistar rats; conditions: for DBP Mean / SBP Mean / DBP (individual animals) / SBP (individual animals): 10 mg/kg i.p.
# Description: Male Wistar normotensive rats were anesthetized with thiopental (50–75 mg/kg, i.p.). The right carotid artery was cannulated with a polyethylene tube filled with heparin in saline to facilitate pressure measurement using the Datamax apparatus (Columbus Instruments, Columbus, Ohio, USA). The studied compounds were administered after a 15-min stabilization period.
# [3] = Body weight measurement in the 17-day experiment; type: in vivo, Swiss albino mice; conditions: for body weight Mean / body weight: mouse, 0.625 mg/kg
# Description: as §1
# The body weight was measured daily immediately prior to administration of the drugs. On the 17th day, the blood was collected from the Swiss albino mice sacrificed by decapitation 20 min after i.p. administration of heparin (2500 units/mouse) and then centrifuged at 600 × g (15 min, 4°C) to separate plasma. The liver, heart, and kidney were also collected and weighed.
# [4] = time 0 min (baseline), 10 mg/kg
smiles,measurement,setting,value
"Cn1c(=O)c2c(nc3n(CCCCN4CCN(c5ccccc5F)CC4)ccn23)n(C)c1=O [AZ-853, 8-(4-(4-(2-fluorophenyl)piperazin-1-yl)butyl)-1,3-dimethyl-1H-imidazo[2,1-f]purine-2,4(3H,8H)-dione]",Ki,[1],0.6 nM
same,reduction of immobility time in FST,mice; 0.625 mg/kg i.p.,approximately 50%
same,reduction of immobility time in FST,mice; 1.25 mg/kg i.p.,~58%
same,reduction of immobility time in FST,mice; 2.5 mg/kg i.p.,~45%
same,effect of WAY-100635 on the antidepressant-like action of the compound in FST,mice; compound 1.25 mg/kg i.p. + WAY-100635 0.3 mg/kg s.c.,completely abolished
same,effect on immobility time in FST after repeated administration,"mice; i.p. once daily for 13 consecutive days, AZ-853 0.625 mg/kg, AZ-861 1.25 mg/kg",decreased the immobility time
same,mean reduction of blood pressure vs. methoxamine alone,[2],95.5 mmHg
same,effect on systolic blood pressure,normotensive rats; 10 mg/kg,did not significantly affect the systolic blood pressure
same,reduction of diastolic blood pressure in relation to the baseline value,normotensive rats; 10 mg/kg,13–15%
same,DBP Mean,normotensive rats; 5 min,88.3 mmHg
same,SBP Mean,normotensive rats; 5 min,131.2 mmHg
same,DBP (individual animals),"normotensive rats; 5 min, 10 mg/kg",85 mmHg and 88 mmHg and 83 mmHg and 95 mmHg and 91 mmHg
same,SBP (individual animals),"normotensive rats; 5 min, 10 mg/kg",143 mmHg and 116 mmHg and 120 mmHg and 123 mmHg and 163 mmHg and 122 mmHg
same,DBP Mean,normotensive rats; 10 min,84.8 mmHg
same,SBP Mean,normotensive rats; 10 min,130.0 mmHg
same,DBP (individual animals),"normotensive rats; 10 min, 10 mg/kg",82 mmHg and 81 mmHg and 85 mmHg and 91 mmHg and 84 mmHg and 86 mmHg
same,SBP (individual animals),"normotensive rats; 10 min, 10 mg/kg",144 mmHg and 112 mmHg and 127 mmHg and 119 mmHg and 162 mmHg and 116 mmHg
same,DBP Mean,normotensive rats; 15 min,83.2 mmHg
same,SBP Mean,normotensive rats; 15 min,128.5 mmHg
same,DBP (individual animals),"normotensive rats; 15 min, 10 mg/kg",80 mmHg and 81 mmHg and 84 mmHg and 88 mmHg and 82 mmHg
same,SBP (individual animals),"normotensive rats; 15 min, 10 mg/kg",140 mmHg and 113 mmHg and 130 mmHg and 116 mmHg and 160 mmHg and 112 mmHg
same,DBP Mean,normotensive rats; 20 min,83.0 mmHg
same,SBP Mean,normotensive rats; 20 min,125.5 mmHg
same,DBP (individual animals),"normotensive rats; 20 min, 10 mg/kg",75 mmHg and 76 mmHg and 85 mmHg and 88 mmHg and 86 mmHg
same,SBP (individual animals),"normotensive rats; 20 min, 10 mg/kg",132 mmHg and 110 mmHg and 128 mmHg and 113 mmHg and 161 mmHg
same,DBP Mean,normotensive rats; 30 min,83.2 mmHg
same,SBP Mean,normotensive rats; 30 min,122.8 mmHg
same,DBP (individual animals),"normotensive rats; 30 min, 10 mg/kg",80 mmHg and 76 mmHg and 84 mmHg and 87 mmHg and 86 mmHg and 85 mmHg
same,SBP (individual animals),"normotensive rats; 30 min, 10 mg/kg",136 mmHg and 109 mmHg and 126 mmHg and 110 mmHg and 160 mmHg and 112 mmHg
same,DBP Mean,normotensive rats; 40 min,82.5 mmHg
same,SBP Mean,normotensive rats; 40 min,126.2 mmHg
same,DBP (individual animals),"normotensive rats; 40 min, 10 mg/kg",80 mmHg and 76 mmHg and 86 mmHg and 88 mmHg and 83 mmHg
same,SBP (individual animals),"normotensive rats; 40 min, 10 mg/kg",138 mmHg and 110 mmHg and 125 mmHg and 111 mmHg and 159 mmHg
same,DBP Mean,normotensive rats; 50 min,83.2 mmHg
same,SBP Mean,normotensive rats; 50 min,125.7 mmHg
same,DBP (individual animals),"normotensive rats; 50 min, 10 mg/kg",83 mmHg and 82 mmHg and 84 mmHg and 86 mmHg and 97 mmHg and 85 mmHg
same,SBP (individual animals),"normotensive rats; 50 min, 10 mg/kg",139 mmHg and 113 mmHg and 119 mmHg and 167 mmHg and 111 mmHg
same,DBP Mean,normotensive rats; 60 min,86.2 mmHg
same,SBP Mean,normotensive rats; 60 min,127.0 mmHg
same,DBP (individual animals),"normotensive rats; 60 min, 10 mg/kg",84 mmHg and 80 mmHg and 83 mmHg and 86 mmHg and 82 mmHg
same,SBP (individual animals),"normotensive rats; 60 min, 10 mg/kg",136 mmHg and 111 mmHg and 116 mmHg and 110 mmHg and 157 mmHg and 107 mmHg
same,DBP Mean,normotensive rats; 70 min,84.7 mmHg
same,SBP Mean,normotensive rats; 70 min,125.3 mmHg
same,DBP (individual animals),"normotensive rats; 70 min, 10 mg/kg",84 mmHg and 85 mmHg and 89 mmHg and 82 mmHg
same,SBP (individual animals),"normotensive rats; 70 min, 10 mg/kg",138 mmHg and 116 mmHg and 120 mmHg and 111 mmHg and 160 mmHg and 107 mmHg
same,DBP Mean,normotensive rats; 80 min,83.2 mmHg
same,SBP Mean,normotensive rats; 80 min,123.2 mmHg
same,DBP (individual animals),"normotensive rats; 80 min, 10 mg/kg",85 mmHg and 80 mmHg and 82 mmHg and 89 mmHg and 81 mmHg
same,SBP (individual animals),"normotensive rats; 80 min, 10 mg/kg",137 mmHg and 112 mmHg and 115 mmHg and 108 mmHg and 160 mmHg and 107 mmHg
same,DBP Mean,normotensive rats; time 0 min (baseline),97.2 mmHg
same,SBP Mean,normotensive rats; time 0 min (baseline),131.0 mmHg
same,DBP (individual animals),normotensive rats; [4],97 mmHg and 98 mmHg and 91 mmHg and 84 mmHg and 100 mmHg and 113 mmHg
same,SBP (individual animals),normotensive rats; [4],129 mmHg and 140 mmHg and 120 mmHg and 119 mmHg and 122 mmHg and 156 mmHg
same,effect on body weight,"[3]; mice, repeated i.p. once daily, AZ-853 0.625 mg/kg (from 10th day), AZ-861 1.25 mg/kg (2nd, 3rd, 4th day)",slight but significant increase in body weight
same,body weight Mean,"[3]; day 1, group mean",23.45 g
same,body weight,"[3]; day 1, individual mouse",24.7 g (2×) and 22.9 g and 21.9 g and 25.0 g and 23.8 g and 23.0 g and 21.7 g (2×) and 25.1 g
same,body weight Mean,"[3]; day 2, group mean",23.55 g
same,body weight,"[3]; day 2, individual mouse",24.9 g and 23.5 g and 24.2 g and 22.6 g and 24.5 g and 23.3 g and 22.7 g and 21.2 g and 22.0 g and 26.6 g
same,body weight Mean,"[3]; day 3, group mean",23.90 g
same,body weight,"[3]; day 3, individual mouse",25.0 g (2×) and 24.0 g (3×) and 23.0 g (2×) and 22.0 g (2×) and 27.0 g
same,body weight Mean,"[3]; day 4, group mean",23.70 g
same,body weight,"[3]; day 4, individual mouse",24.0 g (4×) and 25.0 g and 22.0 g (3×) and 23.0 g and 27.0 g
same,body weight Mean,"[3]; day 5, group mean",23.80 g
same,body weight,"[3]; day 5, individual mouse",23.3 g and 23.8 g and 24.9 g and 22.7 g and 24.6 g and 23.7 g and 23.6 g and 22.2 g and 22.8 g and 26.4 g
same,body weight Mean,"[3]; day 6, group mean",23.85 g
same,body weight,"[3]; day 6, individual mouse",24.2 g and 23.2 g and 24.4 g and 22.9 g and 24.7 g and 23.9 g and 23.5 g and 21.9 g and 23.4 g and 26.4 g
same,body weight Mean,"[3]; day 7, group mean",24.10 g
same,body weight,"[3]; day 7, individual mouse",24.0 g (4×) and 25.0 g (2×) and 23.0 g (3×) and 26.0 g
same,body weight Mean,"[3]; day 8, group mean",24.50 g
same,body weight,"[3]; day 8, individual mouse",25.0 g (2×) and 26.0 g (3×) and 23.0 g (3×) and 24.0 g (2×)
same,body weight Mean,"[3]; day 9, group mean",25.00 g
same,body weight,"[3]; day 9, individual mouse",25.0 g (2×) and 26.0 g (2×) and 27.0 g (2×) and 23.0 g (2×) and 24.0 g (2×)
same,body weight Mean,"[3]; day 10, group mean",25.14 g
same,body weight,"[3]; day 10, individual mouse",25.4 g and 24.9 g and 26.7 g and 23.8 g and 25.2 g and 24.3 g and 24.0 g and 23.7 g and 25.7 g and 27.7 g
same,body weight Mean,"[3]; day 11, group mean",24.68 g
same,body weight Mean,"[3]; day 12, group mean",25.52 g
same,body weight Mean,"[3]; day 13, group mean",25.54 g
same,body weight Mean,"[3]; day 14, group mean",25.91 g
same,body weight Mean,"[3]; day 15, group mean",26.09 g
